Measured values taken from PMC4740242 (Cell reports, 2016).
One block for each molecule: values may come before it.

Legend:
[1] = test system: Ba/F3 cells expressing T674I FIP1L1-PDGFRα; experiment: cells; settings: Mus musculus, BaF3, 24 h, read-out: IC50 cell growth/viability
T674I PDGFRα = T674I PDGFRα (Homo sapiens, UniProt P16234, T674I); experiment: HotSpot radiometric kinase assay, recombinant T674I PDGFRα; type: biochemical; settings: for inhibition of T674I PDGFRα: 500 nM screening concentration, 10 μM ATP
L1196M ALK = L1196M ALK (Homo sapiens, UniProt Q9UM73, L1196M); experiment: HotSpot kinase assay, L1196M ALK; type: biochemical; settings: single-dose screen verified in dose-response
ERBB4 = ERBB4 (Homo sapiens, UniProt Q15303); experiment: Wild-type kinase panel, ERBB4; type: biochemical; settings: single-dose screen
LCK = LCK (Homo sapiens, UniProt P06239); experiment: Wild-type kinase panel, LCK; type: biochemical; settings: single-dose screen
FGR = FGR (Homo sapiens, UniProt P09769); experiment: Wild-type kinase panel, FGR; type: biochemical; settings: single-dose screen
HCK = HCK (Homo sapiens, UniProt P08631); experiment: Wild-type kinase panel, HCK; type: biochemical; settings: single-dose screen
BTK = BTK (Homo sapiens, UniProt Q06187); experiment: Wild-type kinase panel, BTK; type: biochemical; settings: single-dose screen
EPHA6 = EPHA6 (Homo sapiens, UniProt Q9UF33); experiment: Wild-type kinase panel, EPHA6; type: biochemical; settings: single-dose screen
MNK1 = MNK1 (Homo sapiens, UniProt Q9BUB5); experiment: Wild-type kinase panel, MNK1; type: biochemical; settings: single-dose screen
C-SRC = C-SRC (Homo sapiens, UniProt P12931); experiment: Wild-type kinase panel, C-SRC; type: biochemical; settings: single-dose screen
ERBB2 = ERBB2 (Homo sapiens, UniProt P04626); experiment: Wild-type kinase panel, ERBB2; type: biochemical; settings: single-dose screen
EPHB4 = EPHB4 (Homo sapiens, UniProt P54760); experiment: Wild-type kinase panel, EPHB4; type: biochemical; settings: single-dose screen
LRRK2 mutants = experiment: HotSpot kinase assay, LRRK2 mutants; type: biochemical; settings: single-dose screen verified in dose-response
BLK = BLK (Homo sapiens, UniProt P51451); experiment: Wild-type kinase panel, BLK; type: biochemical; settings: single-dose screen
JAK3 = JAK3 (Homo sapiens, UniProt P52333); experiment: Wild-type kinase panel, JAK3; type: biochemical; settings: single-dose screen
RIPK2 = RIPK2 (Homo sapiens, UniProt O43353); experiment: Wild-type kinase panel, RIPK2; type: biochemical; settings: single-dose screen
TXK = TXK (Homo sapiens, UniProt P42681); experiment: Wild-type kinase panel, TXK; type: biochemical; settings: single-dose screen
[2] = test system: T790M EGFR mutants (T790M, T790M/L858R, d746-750/T790M); settings: dose-response
CLK3 = CLK3 (Homo sapiens, UniProt P49761); experiment: Wild-type kinase panel, CLK3; type: biochemical; settings: single-dose screen
[3] = test system: mutants of the RET tyrosine kinase; experiment: HotSpot kinase assay, RET mutants; type: biochemical; settings: single-dose screen verified in dose-response
[4] = test system: Ba/F3 cells expressing WT FIP1L1-PDGFRα; experiment: cells; settings: Mus musculus, BaF3, 24 h, read-out: IC50 cell growth/viability

T674I PDGFRα, sequence (P16234 24-1089 T674I): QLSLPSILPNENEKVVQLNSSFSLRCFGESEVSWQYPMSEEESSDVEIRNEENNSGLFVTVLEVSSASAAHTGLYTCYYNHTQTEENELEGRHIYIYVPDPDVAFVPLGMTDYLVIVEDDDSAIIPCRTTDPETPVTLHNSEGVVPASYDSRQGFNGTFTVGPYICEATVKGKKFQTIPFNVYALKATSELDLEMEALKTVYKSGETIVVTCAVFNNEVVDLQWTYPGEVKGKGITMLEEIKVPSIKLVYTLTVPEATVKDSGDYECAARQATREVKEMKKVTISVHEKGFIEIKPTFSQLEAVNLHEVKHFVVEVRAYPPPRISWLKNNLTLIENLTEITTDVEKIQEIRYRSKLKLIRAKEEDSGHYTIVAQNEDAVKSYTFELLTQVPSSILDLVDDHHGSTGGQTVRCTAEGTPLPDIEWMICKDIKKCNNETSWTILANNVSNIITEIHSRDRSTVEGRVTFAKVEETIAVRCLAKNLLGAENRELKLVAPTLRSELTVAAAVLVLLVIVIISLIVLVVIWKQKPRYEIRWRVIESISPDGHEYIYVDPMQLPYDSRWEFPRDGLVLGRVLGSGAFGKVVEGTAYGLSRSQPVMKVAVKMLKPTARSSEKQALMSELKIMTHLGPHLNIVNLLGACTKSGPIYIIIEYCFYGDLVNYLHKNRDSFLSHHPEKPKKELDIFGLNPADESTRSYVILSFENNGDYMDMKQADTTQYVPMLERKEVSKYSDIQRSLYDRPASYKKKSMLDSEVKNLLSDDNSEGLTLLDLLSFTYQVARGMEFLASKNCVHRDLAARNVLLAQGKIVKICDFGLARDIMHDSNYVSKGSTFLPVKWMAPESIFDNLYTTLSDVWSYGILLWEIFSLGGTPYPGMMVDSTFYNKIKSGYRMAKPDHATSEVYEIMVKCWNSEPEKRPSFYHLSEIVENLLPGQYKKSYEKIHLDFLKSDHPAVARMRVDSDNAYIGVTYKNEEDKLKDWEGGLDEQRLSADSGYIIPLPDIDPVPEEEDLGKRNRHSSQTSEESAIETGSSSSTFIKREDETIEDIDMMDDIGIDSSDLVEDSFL
BTK, sequence (Q06187 whole entry): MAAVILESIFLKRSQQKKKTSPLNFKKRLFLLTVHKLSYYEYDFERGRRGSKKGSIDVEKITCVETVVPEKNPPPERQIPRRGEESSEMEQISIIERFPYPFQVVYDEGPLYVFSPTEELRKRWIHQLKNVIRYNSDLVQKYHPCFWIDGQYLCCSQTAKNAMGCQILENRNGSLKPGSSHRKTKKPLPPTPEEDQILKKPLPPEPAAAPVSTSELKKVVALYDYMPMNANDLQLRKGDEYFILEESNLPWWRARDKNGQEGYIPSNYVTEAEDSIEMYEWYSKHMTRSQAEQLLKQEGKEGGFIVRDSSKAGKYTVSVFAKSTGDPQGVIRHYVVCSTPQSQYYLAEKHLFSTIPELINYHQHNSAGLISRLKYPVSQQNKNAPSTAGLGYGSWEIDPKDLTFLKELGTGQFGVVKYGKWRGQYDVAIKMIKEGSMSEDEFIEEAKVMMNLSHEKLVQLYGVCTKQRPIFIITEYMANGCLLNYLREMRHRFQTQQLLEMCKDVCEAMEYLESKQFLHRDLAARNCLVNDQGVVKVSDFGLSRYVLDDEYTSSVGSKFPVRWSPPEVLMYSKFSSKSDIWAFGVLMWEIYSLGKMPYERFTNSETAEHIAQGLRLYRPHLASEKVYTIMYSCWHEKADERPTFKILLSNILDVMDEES
ERBB4, sequence (Q15303 26-1308): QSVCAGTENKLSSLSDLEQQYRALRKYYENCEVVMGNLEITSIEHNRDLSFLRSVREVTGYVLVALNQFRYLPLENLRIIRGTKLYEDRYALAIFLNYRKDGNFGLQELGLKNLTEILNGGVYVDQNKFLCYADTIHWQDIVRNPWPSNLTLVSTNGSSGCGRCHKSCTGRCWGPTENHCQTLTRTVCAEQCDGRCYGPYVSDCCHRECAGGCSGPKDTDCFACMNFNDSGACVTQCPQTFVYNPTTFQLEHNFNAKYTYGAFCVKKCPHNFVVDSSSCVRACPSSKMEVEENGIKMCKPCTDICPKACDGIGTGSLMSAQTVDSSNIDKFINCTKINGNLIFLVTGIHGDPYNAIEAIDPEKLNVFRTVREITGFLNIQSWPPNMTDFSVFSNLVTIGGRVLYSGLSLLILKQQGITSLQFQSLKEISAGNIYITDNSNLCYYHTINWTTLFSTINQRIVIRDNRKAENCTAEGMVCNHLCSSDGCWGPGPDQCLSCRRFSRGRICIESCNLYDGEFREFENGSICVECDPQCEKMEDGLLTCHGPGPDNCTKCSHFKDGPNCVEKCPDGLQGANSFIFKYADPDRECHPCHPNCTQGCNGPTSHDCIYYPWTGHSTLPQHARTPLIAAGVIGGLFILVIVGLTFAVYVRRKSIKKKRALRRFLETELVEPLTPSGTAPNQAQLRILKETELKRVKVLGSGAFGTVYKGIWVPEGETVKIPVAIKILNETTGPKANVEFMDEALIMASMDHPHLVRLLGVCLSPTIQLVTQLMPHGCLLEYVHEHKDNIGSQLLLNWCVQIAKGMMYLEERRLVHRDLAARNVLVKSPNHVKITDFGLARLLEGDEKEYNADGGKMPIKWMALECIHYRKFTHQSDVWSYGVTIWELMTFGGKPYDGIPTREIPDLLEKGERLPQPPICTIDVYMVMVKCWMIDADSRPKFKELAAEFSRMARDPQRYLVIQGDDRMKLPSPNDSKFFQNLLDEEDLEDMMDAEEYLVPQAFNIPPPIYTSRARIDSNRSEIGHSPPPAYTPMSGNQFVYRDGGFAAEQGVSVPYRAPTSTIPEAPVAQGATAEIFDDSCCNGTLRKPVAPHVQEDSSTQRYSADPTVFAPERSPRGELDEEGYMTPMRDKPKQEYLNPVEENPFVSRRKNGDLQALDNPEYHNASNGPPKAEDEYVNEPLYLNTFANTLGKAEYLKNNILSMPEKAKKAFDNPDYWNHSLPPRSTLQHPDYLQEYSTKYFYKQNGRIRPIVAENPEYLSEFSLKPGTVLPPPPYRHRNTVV
TXK, sequence (P42681 whole entry): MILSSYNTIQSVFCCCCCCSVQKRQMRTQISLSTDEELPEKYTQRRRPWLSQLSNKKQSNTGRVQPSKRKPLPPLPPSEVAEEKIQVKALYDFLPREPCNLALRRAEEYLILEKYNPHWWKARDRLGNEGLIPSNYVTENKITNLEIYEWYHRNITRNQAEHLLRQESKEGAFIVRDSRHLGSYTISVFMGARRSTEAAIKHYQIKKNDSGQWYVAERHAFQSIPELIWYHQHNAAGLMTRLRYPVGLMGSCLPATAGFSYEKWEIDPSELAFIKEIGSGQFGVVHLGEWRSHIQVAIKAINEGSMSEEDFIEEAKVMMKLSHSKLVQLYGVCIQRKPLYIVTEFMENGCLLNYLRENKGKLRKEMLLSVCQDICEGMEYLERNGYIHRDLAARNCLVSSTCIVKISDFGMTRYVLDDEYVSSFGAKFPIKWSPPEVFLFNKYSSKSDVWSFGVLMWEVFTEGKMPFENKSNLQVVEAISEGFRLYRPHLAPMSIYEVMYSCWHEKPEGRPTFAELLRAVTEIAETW
ERBB2, sequence (P04626 23-1255): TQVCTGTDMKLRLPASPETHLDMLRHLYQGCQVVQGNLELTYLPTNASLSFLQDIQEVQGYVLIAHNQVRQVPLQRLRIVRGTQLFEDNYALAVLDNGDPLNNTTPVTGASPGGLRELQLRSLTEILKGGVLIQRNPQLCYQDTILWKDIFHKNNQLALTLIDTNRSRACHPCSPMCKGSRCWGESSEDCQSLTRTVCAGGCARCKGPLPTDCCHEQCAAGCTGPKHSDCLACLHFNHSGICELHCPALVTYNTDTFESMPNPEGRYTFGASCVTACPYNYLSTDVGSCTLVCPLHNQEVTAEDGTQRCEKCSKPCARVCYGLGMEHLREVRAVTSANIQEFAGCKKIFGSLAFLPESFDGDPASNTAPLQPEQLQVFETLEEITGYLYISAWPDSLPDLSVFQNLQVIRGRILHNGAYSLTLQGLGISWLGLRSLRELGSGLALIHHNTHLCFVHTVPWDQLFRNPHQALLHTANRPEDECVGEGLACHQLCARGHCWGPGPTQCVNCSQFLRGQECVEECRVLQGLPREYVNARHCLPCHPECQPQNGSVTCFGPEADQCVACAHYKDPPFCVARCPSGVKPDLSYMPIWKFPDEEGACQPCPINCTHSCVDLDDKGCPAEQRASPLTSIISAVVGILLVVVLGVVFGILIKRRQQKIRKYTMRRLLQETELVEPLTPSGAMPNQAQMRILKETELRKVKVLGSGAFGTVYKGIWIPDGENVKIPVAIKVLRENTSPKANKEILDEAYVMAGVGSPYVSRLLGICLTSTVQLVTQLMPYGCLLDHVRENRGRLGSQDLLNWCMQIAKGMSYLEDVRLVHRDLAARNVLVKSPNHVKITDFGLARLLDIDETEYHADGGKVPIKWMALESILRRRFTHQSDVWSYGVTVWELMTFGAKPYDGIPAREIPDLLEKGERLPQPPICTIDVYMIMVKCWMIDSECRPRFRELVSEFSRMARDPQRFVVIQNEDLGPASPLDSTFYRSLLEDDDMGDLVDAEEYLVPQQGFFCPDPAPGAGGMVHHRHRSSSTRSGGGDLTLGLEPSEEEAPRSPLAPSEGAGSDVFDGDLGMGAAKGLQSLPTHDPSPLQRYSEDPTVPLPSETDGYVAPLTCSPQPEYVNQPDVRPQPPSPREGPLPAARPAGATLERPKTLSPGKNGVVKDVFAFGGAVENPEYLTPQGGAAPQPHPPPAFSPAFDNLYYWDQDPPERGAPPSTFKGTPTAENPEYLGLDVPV

Molecule: COc1cc2ncnc(Nc3cccc(O)c3)c2cc1OC [compound 1]
- fold more potent than compound 2 against T674I PDGFRα (T674I PDGFRα; IC50 comparison, meta vs para substituent): 2 fold

Molecule: bosutinib isomer
- inhibition of crizotinib-resistant L1196M ALK (in words) (L1196M ALK): inhibitor

Molecule: COc1cc2ncnc(Nc3ccc(O)cc3)c2cc1OC [compound 2]
- fold less potent than compound 3 against T674I PDGFRα (T674I PDGFRα; IC50 comparison): ~ 2 fold

Molecule: CN(C)C/C=C/C(=O)Nc1cc2c(Nc3ccc(F)c(Cl)c3)ncnc2cc1O[C@H]1CCOC1 [afatinib]
- inhibition of ERBB4 (ERBB4): more than 50%
- inhibition of LCK (LCK): more than 50%
- inhibition of FGR (FGR): more than 50%
- inhibition of HCK (HCK): more than 50%
- inhibition of BTK (BTK): more than 50%
- inhibition of EPHA6 (EPHA6): more than 50%
- inhibition of MNK1 (MNK1): more than 50%
- inhibition of C-SRC (C-SRC): more than 50%
- inhibition of ERBB2 (ERBB2): more than 50%
- inhibition of EPHB4 (EPHB4): more than 50%

Molecule: Jak3 Inhibitor II
- inhibition of LRRK2 mutants (in words) (LRRK2 mutants): inhibit

Molecule: EGFR/ErbB2/ErbB4 Inhibitor
- inhibition of BLK (BLK): more than 50%
- inhibition of JAK3 (JAK3): more than 50%
- inhibition of ERBB4 (ERBB4): more than 50%
- inhibition of RIPK2 (RIPK2): more than 50%
- inhibition of BTK (BTK): more than 50%
- inhibition of TXK (TXK): more than 50%
- apparent IC50 against all T790M EGFR kinases (in words) [2]: low nanomolar
- inhibition of CLK3 (CLK3): more than 50%

Molecule: COc1cc2ncnc(Nc3ccc(Oc4ccccc4)cc3)c2cc1OC [compound 3]
- potency relative to compound 4 against T674I PDGFRα (T674I PDGFRα; IC50 comparison): several-fold more potent

Molecule: COc1cc2ncnc(Nc3cccc(Cl)c3)c2cc1OC [compound 5]
- fold more potent than compound 7 against T674I PDGFRα (T674I PDGFRα; IC50 comparison): approximately 1.5 fold

Molecule: C#Cc1cccc(Nc2ncnc3cc(OCCOC)c(OCCOC)cc23)c1 [erlotinib]
- IC50 [1]: 1640 nM
- IC50 [4]: 14500 nM
- inhibition of T674I PDGFRα (T674I PDGFRα): > 90%

Molecule: Flt-3 Inhibitor
- inhibition of LRRK2 mutants (in words) (LRRK2 mutants): inhibit

Other lines, results leading:

- IC50 [1]: 144 nM
- inhibition of T674I PDGFRα (T674I PDGFRα): > 90%
Molecule: CNC(=O)c1cc(Oc2ccc(NC(=O)Nc3ccc(Cl)c(C(F)(F)F)c3)cc2)ccn1 [sorafenib]

- fold more potent than compound 7 against T674I PDGFRα (T674I PDGFRα; IC50 comparison): approximately 1.5 fold
Molecule: COc1cc2ncnc(Nc3cccc(Br)c3)c2cc1OC [compound 6]

- IC50 [1]: 3170 nM
- inhibition of T674I PDGFRα (T674I PDGFRα): > 90%
Molecule: Cc1ccc(Nc2nccc(N(C)c3ccc4c(C)n(C)nc4c3)n2)cc1S(N)(=O)=O [pazopanib]

- inhibition of RET mutants (in words) [3]: can inhibit
Molecule: Cc1cc(Nc2cc(N3CCN(C)CC3)nc(Sc3ccc(NC(=O)C4CC4)cc3)n2)[nH]n1 [tozasertib]

- IC50 [1]: 45.2 nM
- inhibition of T674I PDGFRα (T674I PDGFRα): > 90%
Molecule: CCN(CC)CCNC(=O)c1c(C)[nH]c(/C=C2\C(=O)Nc3ccc(F)cc32)c1C [sunitinib]
